Assay results from patent US20060293362A1, “Nitro-substituted hydroxyindoles, their use as inhibitors of phosphodiesterase 4, and processes for preparing them” (priority 2005, published 2006).

What was measured:
PDE 4 = test: Inhibition of phosphodiesterase 4 (SPA assay, enzyme preparation from human PMNLs); format: biochemical; conditions: cytosolic PDE 4 fraction from human PMNLs; 0.5 μM [3H]-cAMP; 100 μM cGMP
Procedure: The PDE 4 activity is determined using enzyme preparations from human […] (PMNLs). Human blood (buffy coats) was anticoagulated with citrate. The platelet-rich plasma in the supernatant is separated from the erythrocytes and leucocytes by centrifuging at 700 […]g for 20 minutes at room temperature (RT). The PMNLs for the PDE 4 determination are isolated by means of a subsequent dextran sedimentation followed by a gradient centrifugation using Ficoll-Paque. After the cells have been washed twice, the erythrocytes which are still present are lysed within 6 minutes by adding 10 ml of hypotonic buffer (155 mM NH4Cl, 10 mM NaHCO3, 0.1 mM EDTA, pH=7.4) at 4° C. The PMNLs, which are still intact, are washed a further two times with PBS and lysed by ultrasonication. The supernatant obtained after centrifuging at 48 000×g at 4° C. for one hour contains the cytosolic PDE 4 fraction and is used for the PDE 4 measurements.
The phosphodiesterase activity is measured using a modified Amersham Pharmacia Biotech method, i.e. an SPA (scintillation proximity assay) assay. The reaction mixtures contain buffer (50 mM tris-HCl (pH 7.4), 5 mM MgCl2, 100 μM cGMP), varying concentrations of the inhibitors, and the corresponding enzyme preparation. The reaction is started by adding the substrate, i.e. 0.5 μM [3H]-cAMP. The final volume is 100 μl. Test substances are prepared as stock solutions in DMSO. The concentration of DMSO in the reaction mixture is 1% v/v. This DMSO concentration has no effect on PDE activity. After the reaction has been started by adding the substrate, the samples are incubated at 37° C. for 30 minutes. The reaction is stopped by adding a defined quantity of SPA beads and the samples are measured in a beta counter after one hour. The nonspecific enzyme activity (i.e. the blank) is determined in the presence of 100 μM rolipram and subtracted from the test values. The incubation mixtures for the PDE 4 assay contain 100 μM cGMP in order to inhibit any contamination of PDE 3 which may be present.

[1] = test system: pulmonary eosinophil infiltration; test: Inhibition of late-phase eosinophilia 48 h after inhalative ovalbumin challenge in actively sensitized Brown Norway rats; format: in vivo; conditions: 2 h prior to allergen challenge, BAL 48 h after challenge
Procedure: The inhibition exerted by the substances according to the invention on pulmonary eosinophil infiltration is examined in male Brown Norway rats (200-250 g) which have been actively sensitized against ovalbumin (OVA). The sensitization is effected by subcutaneously injecting a suspension of 10 μg of OVA, together with 20 mg of aluminium hydroxide as adjuvant, in 0.5 ml of physiological sodium chloride solution per animal on days 1, 14 and 21. In addition to this, each of the animals is injected at the same time with 0.25 ml of Bordetalla pertussis vaccine dilution i.p. On the 28th day of the experiment, the animals are placed individually in open 11 Plexiglass boxes which are connected to a head/nose exposure appliance. The animals are exposed to an aerosol consisting of a 1.0% suspension of ovalbumin (Allergen Challenge). The ovalbumin aerosol is generated using a compressed air (0.2 MPa)-driven nebulizer (Bird micro nebulizer, Palm Springs Calif., USA). The exposure time is 1 hour, with normal controls likewise being nebulized for 1 hour with an aerosol consisting of a 0.9% solution of sodium chloride.
48 hours after the allergen challenge, there is a massive immigration of eosinophilic granulocytes into the lungs of the animals. At this time, the animals are anaesthetized with an overdose of ethylurethane (1.5 g/kg of body weight, given i.p.) and a bronchoalveolar lavage (BAL) is carried out using 3×4 ml of Hank's balance solution. The total cell count, and the number of eosinophilic granulocytes, in the pooled BAL liquid are then determined using an automatic haemocytometer (Bayer Diagnostics Technicon H1E). For each animal, the eosinophils (EOS) in the BAL are calculated in 10^6/animal: EOS/μl×BAL recovery (ml)=EOS/animal. Two control groups (nebulization with physiological sodium chloride solution and nebulization with OVA solution) are included in each test.
The percentage inhibition of the eosinophilia in the substance-treated experimental group is calculated using the following formula: {((OVAC−SC)−(OVAD−SC))/(OVAC−SC)}×100%=% inhibition
(SC=control group treated with vehicle and challenged with 0.9% sodium chloride solution; OVAC=control group treated with vehicle and challenged with 1% of ovalbumin suspension; OVAD=experimental group treated with substance and challenged with 1% of ovalbumin suspension)
The test substances are administered 2 hours prior to the allergen challenge intraperitoneally or orally as a suspension in 10% polyethylene glycol 300 and 0.5% 5-hydroxyethyl cellulose or per inhalation as a mixture with lactose. The control groups are treated with the vehicle in accordance with the manner in which the test substance is administered.

[2] = test system: pulmonary neutrophil infiltration; test: Inhibition of lipopolysaccharide (LPS)-induced pulmonary neutrophilia in Lewis rats; format: in vivo; conditions: 2 h prior to LPS provocation, BAL 6 h after provocation
Procedure: The ability of the substances according to the invention to inhibit pulmonary neutrophil infiltration is examined in male Lewis rats (200-350 g). On the day of the experiment, the animals are placed individually in open 1 l Plexiglass boxes which are connected to a head/nose exposure appliance. The animals are exposed to an aerosol consisting of a suspension of lipopolysaccharide (100 μg of LPS/ml of 0.1% hydroxylamine solution) in PBS (LPS provocation). The LPS/hydroxylamine aerosol is generated using a compressed air (0.2 MPa)-driven nebulizer (Bird micro nebulizer, Palm Springs Calif., USA). The exposure time is 40 minutes, with normal controls likewise being nebulized for 40 minutes with an aerosol consisting of a 0.1% solution of hydroxylamine in PBS.
6 hours after the LPS provocation, there is a maximal and massive immigration of neutrophilic granulocytes into the lungs of the animals. At this time, the animals are anaesthetized with an overdose of ethylurethane (1.5 g/kg of body weight, given i.p.) and a bronchoalveolar lavage (BAL) is carried out using 3×4 ml of Hank's balance solution. The total cell count, and the number of neutrophilic granulocytes, in the pooled BAL liquid are then determined using an automatic haemocytometer (Bayer Diagnostics Technicon H1E). In the case of each animal, the neutrophils (NEUTRO) in the BAL are calculated in 10^6/animal: NEUTRO/μl×BAL recovery (ml)=NEUTRO/animal.
Two control groups (nebulization with a 0.1% hydroxylamine solution in PBS and nebulization with 100 μg of LPS/ml of 0.1% hydroxylamine solution in PBS) are included in each test. The percentage inhibition of the neutrophilia in the substance-treated experimental group is calculated using the following formula: {((LPSC−SC)−(LPSD−SC))/(LPSC−SC)}×100%=% inhibition
SC=control group treated with vehicle and challenged with 0.1% hydroxylamine solution; LPSC=control group treated with vehicle and challenged with LPS (100 μg/ml of 0.1% hydroxylamine solution); LPSD=experimental group treated with substance and challenged with LPS (100 μg/ml of 0.1% hydroxylamine solution)
The test substances are administered 2 hours prior to the LPS provocation, as a suspension in 10% polyethylene glycol 300 and 0.5% 5-hydroxyethyl cellulose orally or per inhalation as a mixture with lactose. The control groups are treated with the vehicle in accordance with the mode of administration used for the test substance.

Structure (SMILES)	IC50 (PDE 4) [nM]	Inhibition of eosinophilia ([1]; 0.001 mg/kg i.t.) [%]	Inhibition of eosinophilia ([1]; 10 mg/kg i.p.) [%]	Inhibition of eosinophilia ([1]; 30 mg/kg p.o.) [%]	Inhibition of neutrophilia ([2]; 0.001 mg/kg i.t.) [%]	Inhibition of neutrophilia ([2]; 1 mg/kg p.o.) [%]	melting point	Inhibition of eosinophilia ([1]; 0.01 mg/kg i.t.)	Inhibition of eosinophilia ([1]; 0.1 mg/kg i.t.)	Inhibition of neutrophilia ([2]; 0.01 mg/kg i.t.)	Inhibition of neutrophilia ([2]; 0.1 mg/kg i.t.)
O=C(Nc1c(Cl)cncc1Cl)C(=O)c1cn(Cc2ccc(Cl)cc2[N+](=O)[O-])c2c(O)cccc12 [Compound 1, N-(3,5-dichloropyrdin-4-yl)-[1-(4-chloro-2-nitrobenzyl)-7-hydroxyindol-3-yl]glyoxylic acid amide]	0.9	55	57	51	51	49	–	–	–	–	–
Cc1ccc([N+](=O)[O-])c(Cn2cc(C(=O)C(=O)Nc3c(Cl)cncc3Cl)c3cccc(O)c32)c1 [Compound 5, N-(3,5-dichloropyridine-4-yl)-[7-hydroxy-1-(5-methyl-2-nitrobenzyl)-indol-3-yl]-glyoxylic acid amide]	38	–	–	–	–	–	297 to 300 °C (dec.)	–	–	–	–
O=C(Nc1c(Cl)cncc1Cl)C(=O)c1cn(Cc2c(F)cccc2F)c2c(O)cccc12 [Comparative Compound B, N-(3,5-dichloropyridin-4-yl)[1-(2,6-difluorobenzyl)-7-hydroxyindol-3-yl] glyoxylic acid amide]	2	–	38	30	–	31	–	no effect	35%	no effect	38%
O=C(Nc1c(Cl)cncc1Cl)C(=O)c1cn(Cc2c(F)cccc2[N+](=O)[O-])c2c(O)cccc12 [Compound 2, N-(3,5-dichloropyridine-4-yl)[1-(6-fluoro-2-nitrobenzyl)-7-hydroxyindole-3-yl)glyoxylic acid amide]	0.6	–	–	–	–	–	308 to 310 °C	–	–	–	–
Cc1c(Cn2cc(C(=O)C(=O)Nc3c(Cl)cncc3Cl)c3cccc(O)c32)cccc1[N+](=O)[O-] [Compound 4, N-(3,5-dichloropyridine-4-yl)-[7-hydroxy-1-(2-methyl-3-nitrobenzyl)-indol-3-yl]-glyoxylic acid amide]	2	–	–	–	–	–	229 to 232 °C (dec.)	–	–	–	–
O=C(Nc1c(Cl)cncc1Cl)C(=O)c1cn(Cc2ccccc2Cl)c2c(O)cccc12 [Comparative Compound C, (N-3,5-dichloropyridin-4-yl)[1-(2-chlorobenzyl)-7-hydroxyindol-3-yl] glyoxylic acid amide]	0.6	–	30	32	–	34	–	no effect	62%	no effect	31%
Cc1ccc(Cn2cc(C(=O)C(=O)Nc3c(Cl)cncc3Cl)c3cccc(O)c32)cc1[N+](=O)[O-] [Compound 3, N-(3,5-dichloropyridine-4-yl)-[7-hydroxy-1-(4-methyl-3-nitrobenzyl)-indol-3-yl]-glyoxylic acid amide]	8	–	–	–	–	–	–	–	–	–	–
O=C(Nc1c(Cl)c[n+]([O-])cc1Cl)C(=O)c1cn(Cc2ccc(Cl)cc2[N+](=O)[O-])c2c(O)cccc12 [Compound 6, N-(3,5-dichloro-1-oxo-pyridine-4-yl)-[1-(4-chloro-2-nitrobenzyl)-7-hydroxyindol-3-yl]-glyoxylic acid amide]	4	–	–	–	–	–	–	–	–	–	–
O=C(Nc1c(Cl)cncc1Cl)C(=O)c1cn(Cc2cccc([N+](=O)[O-])c2)c2c(O)cccc12 [Comparative Compound A]	2	–	33	31	–	39	–	–	no effect	–	no effect
